From PMC10066365, “Nemacol is a small molecule inhibitor of C. elegans vesicular acetylcholine transporter with anthelmintic potential” (Nature Communications, 2023)
Like-named read-outs stand apart in the source and are kept apart here.

Key:
[1] = system: Dirofilaria immitis microfilariae; test: Dirofilaria immitis microfilariae immobility assay (DiroImager, 72 h); conditions: Dirofilaria immitis microfilariae
Summary of the method: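 Motility read after 72 h drug exposure with an image-based high-throughput plate imager, 1% DMSO medium serving as negative control. Missouri-isolate microfilariae, roughly 250 per well, freshly purified and cultured in supplemented RPMI 1640.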

[2] = system: Pristionchus pacificus; test: Pristionchus pacificus motor disruption dose-response on solid media, 1 h; conditions: for mean % any phene (coiled, jerky-Unc or paralyzed): Pristionchus pacificus young adults, mean of three biological replicates; for EC50: Pristionchus pacificus, 1 h, read-out: P. pacificus motor disruption EC50; for rep 1 atypical locomotion / rep 1 coiled / rep 1 no phene / rep 1 paralyzed / rep 2 atypical locomotion / rep 2 coiled / rep 2 no phene / rep 2 paralyzed: count of 20 animals per trial, one hour
Method: Locomotor phenotype analyses were done in 24-well plates with 1 mL of MYOB substrate (27.5 g Trizma HCl, 12 g Trizma Base, 230 g bacto tryptone, 10 g NaCl, 0.4 g cholesterol (95%)) seeded with 25 µL of OP50 Escherichia coli on each well. Each compound was added to the MYOB substrate before pouring to achieve the desired final concentrations of 30 µM or 60 µM after diffusion through the media. Synchronized young adult worms are transferred into each well using a platinum wire pick. A Leica MZ75 stereomicroscope was used to visualize the movement of worms on the solid substrate. The specific dominant locomotor phenotype (i.e. ‘Punc’, ‘paralyzed’, ‘coiler’ or ‘wild-type locomotion’) was scored after the touch on the head with a platinum wire over a ~3–5 s of observation. […] Coiled animals were not scored as paralyzed despite sometimes not responding to light touch.

[3] = system: Dirofilaria immitis L3/L4; test: Dirofilaria immitis L3/L4 motility assay (DiroImager, 72 h); conditions: Dirofilaria immitis L4
[4] = system: C. elegans; test: C. elegans motor phenotype scoring on solid media (Punc/jerky-unc, coiled, paralyzed), wild-type young adults; assay type: in vivo, Caenorhabditis elegans; conditions: for any phene (mean % fraction of young adults exhibiting any phenotype: coiled, jerky-Unc or paralyzed): one hour, mean of three biological replicates; for EC50: Caenorhabditis elegans, any motor phenotype after 1 h on solid media, ± 95% CI, read-out: C. elegans - motor disruption EC50
[5] = target: T1, rat VAChT (Rattus norvegicus, UniProt Q62666); test: [3H]Vesamicol competitive radioligand binding, PC12 cells expressing ratVAChT; conditions: [3H]Vesamicol binding
T1 construct: expressed in transfected cells; host or cells: rat PC12 (PC12 A123.7) cells, stably transfected; shared by Dr. Ali Roghani (Texas Tech University)
T1 sequence (Q62666 1-530): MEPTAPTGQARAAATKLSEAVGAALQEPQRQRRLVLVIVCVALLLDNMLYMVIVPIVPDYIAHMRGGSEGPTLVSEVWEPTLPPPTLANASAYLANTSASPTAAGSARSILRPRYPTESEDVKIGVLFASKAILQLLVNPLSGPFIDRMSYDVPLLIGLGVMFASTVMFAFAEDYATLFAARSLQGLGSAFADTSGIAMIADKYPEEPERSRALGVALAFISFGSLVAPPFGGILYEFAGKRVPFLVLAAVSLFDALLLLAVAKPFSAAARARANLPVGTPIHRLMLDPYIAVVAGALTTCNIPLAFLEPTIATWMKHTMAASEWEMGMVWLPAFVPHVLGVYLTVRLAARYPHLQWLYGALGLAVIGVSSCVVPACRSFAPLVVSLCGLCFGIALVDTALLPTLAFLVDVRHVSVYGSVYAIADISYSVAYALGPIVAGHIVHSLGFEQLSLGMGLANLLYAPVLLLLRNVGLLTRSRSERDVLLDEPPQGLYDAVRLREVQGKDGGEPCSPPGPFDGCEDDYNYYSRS

[6] = conc 3.75, observed at one hour
[7] = 3.75uM, third c14 line of each analog
[8] = PC12, experiment 1, read-out: expt 1 Ki (M) vs. rat VAChT (PC12)
[9] = PC12, experiment 2, read-out: expt 2 Ki (M) vs. rat VAChT (PC12)
[10] = rat VAChT (PC12), mean of 2-3 experiments, read-out: mean Ki

SMILES: Clc1ccc(N2CCN(CC3CC4C=CC3C4)CC2)cc1 (stereo not drawn) [Nemacol-46]
- % effect (motility), DIROIM MF ([1]; 0.016 µM): 0%
- % effect (motility), DIROIM MF ([1]; 0.08 µM): 0%
- % effect (motility), DIROIM MF ([1]; 0.4 µM): 0%
- % effect (motility), DIROIM MF ([1]; 2 µM): 0%
- % effect (motility), DIROIM MF ([1]; 10 µM): 0%
- mean % any phene (coiled, jerky-Unc or paralyzed) [2, 6]: 41.6667%
- mean % any phene (coiled, jerky-Unc or paralyzed) ([2]; conc 15, observed at one hour): 58.3333%
- mean % any phene (coiled, jerky-Unc or paralyzed) ([2]; conc 60, observed at one hour): 84.1667%
- EC50 [2]: 7000 ± 2400 nM
- rep 1 atypical locomotion ([2]; conc 3.75): 0
- rep 1 coiled ([2]; conc 3.75): 0
- rep 1 no phene ([2]; conc 3.75): 20
- rep 1 paralyzed ([2]; conc 3.75): 0
- rep 2 atypical locomotion ([2]; conc 3.75): 4
- rep 2 coiled ([2]; conc 3.75): 0
- rep 2 no phene ([2]; conc 3.75): 16
- rep 2 paralyzed ([2]; conc 3.75): 0
- rep 1 atypical locomotion ([2]; conc 15): 11
- rep 1 coiled ([2]; conc 15): 4
- rep 1 no phene ([2]; conc 15): 4
- rep 1 paralyzed ([2]; conc 15): 1
- rep 2 atypical locomotion ([2]; conc 15): 0
- rep 2 coiled ([2]; conc 15): 8
- rep 2 no phene ([2]; conc 15): 0
- rep 2 paralyzed ([2]; conc 15): 12
- rep 1 atypical locomotion ([2]; conc 60): 4
- rep 1 coiled ([2]; conc 60): 6
- rep 1 no phene ([2]; conc 60): 0
- rep 1 paralyzed ([2]; conc 60): 10
- rep 2 atypical locomotion ([2]; conc 60): 0
- rep 2 coiled ([2]; conc 60): 8
- rep 2 no phene ([2]; conc 60): 0
- rep 2 paralyzed ([2]; conc 60): 12
- % effect (motility), DIROIM L4 ([3]; 2 µM): 0%
- % effect (motility), DIROIM L4 ([3]; 10 µM): 5%
- % effect (motility), DIROIM L4 ([3]; 50 µM): 25%
- any phene (mean % fraction of young adults exhibiting any phenotype: coiled, jerky-Unc or paralyzed) [4, 7]: 89.1667%
- EC50 [4]: 2300 nM
- Ki [5, 8]: 9.16e-08 M
- Ki [5, 9]: 7.54e-08 M
- Ki [5, 10]: 8.35e-08 M

SMILES: Cc1ccc(N2CCN(CC3CC4C=CC3C4)CC2)cc1 (stereo not drawn) [Nemacol-43]
- % effect (motility), DIROIM MF ([1]; 0.016 µM): 0%
- % effect (motility), DIROIM MF ([1]; 0.08 µM): 0%
- % effect (motility), DIROIM MF ([1]; 0.4 µM): 0%
- % effect (motility), DIROIM MF ([1]; 2 µM): 0%
- % effect (motility), DIROIM MF ([1]; 10 µM): 0%
- mean % any phene (coiled, jerky-Unc or paralyzed) [2, 6]: 0%
- mean % any phene (coiled, jerky-Unc or paralyzed) ([2]; conc 15, observed at one hour): 20.8333%
- mean % any phene (coiled, jerky-Unc or paralyzed) ([2]; conc 60, observed at one hour): 76.4035%
- EC50 [2]: 31500 ± 4900 nM
- % effect (motility), DIROIM L4 ([3]; 2 µM): 6%
- % effect (motility), DIROIM L4 ([3]; 10 µM): 5%
- % effect (motility), DIROIM L4 ([3]; 50 µM): 20%
- any phene (mean % fraction of young adults exhibiting any phenotype: coiled, jerky-Unc or paralyzed) [4, 7]: 33.7698%
- any phene (mean % fraction of young adults exhibiting any phenotype: coiled, jerky-Unc or paralyzed) ([4]; 15uM, second c14 line of each analog): 100%
- any phene (mean % fraction of young adults exhibiting any phenotype: coiled, jerky-Unc or paralyzed) ([4]; 60uM, first c14 line of each analog): 100%
- EC50 [4]: 3900 nM
- Ki [5, 8]: 1.91e-07 M
- Ki [5, 9]: 1.26e-07 M
- Ki [5, 10]: 1.59e-07 M
